Source: ChEMBL document CHEMBL1201862, “PubChem BioAssay data set” (2004)
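Interpolation was linear, between the two tested concentrations surrounding the appropriate level; five concentrations were tested over 48 hours in 96-well plates. GI50 marks 50% less growth.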 Activity calls are given as the source filed them. Rule as the data show it: active = GI50 up to about 1.1 µM and inactive = higher.

Assays:
Test in all cases: NCI tumour cell line growth inhibition, 48 h
[1] = tested on: 786-0
[2] = tested on: LXFL 529
[3] = tested on: SF-539
[4] = tested on: NCI-H522
[5] = tested on: HOP-62
[6] = tested on: TK-10
[7] = tested on: ACHN
[8] = tested on: MOLT-4
[9] = tested on: DMS-273
[10] = tested on: K562
[11] = tested on: SNB-78
[12] = tested on: Malme-3M
[13] = tested on: HT-29
[14] = tested on: SK-OV-3
[15] = tested on: OVCAR-8
[16] = tested on: HOP-18
[17] = tested on: LOX IMVI
[18] = tested on: SK-MEL-2
[19] = tested on: IGROV-1
[20] = tested on: SW-620
[21] = tested on: NCI-H23
[22] = tested on: UO-31
[23] = tested on: NCI-H226
[24] = tested on: DMS-114
[25] = tested on: DLD-1
[26] = tested on: OVCAR-5
[27] = tested on: KM12
[28] = tested on: SNB-19
[29] = tested on: HOP-92
[30] = tested on: SN12C
[31] = tested on: CAKI-1
[32] = tested on: HL-60
[33] = tested on: OVCAR-4
[34] = tested on: XF498
[35] = tested on: A498
[36] = tested on: HCC 2998
[37] = tested on: RXF 393
[38] = tested on: UACC-62
[39] = tested on: UACC-257
[40] = tested on: A549
[41] = tested on: RXF 631
[42] = tested on: SF-295
[43] = tested on: M19-MEL
[44] = tested on: SR
[45] = tested on: SF-268
[46] = tested on: SK-MEL-5
[47] = tested on: NCI-H460
[48] = tested on: CCRF-CEM
[49] = tested on: COLO 205
[50] = tested on: U-251
[51] = tested on: SK-MEL-28
[52] = tested on: EKVX
[53] = tested on: RPMI-8226
[54] = tested on: SNB-75
[55] = tested on: OVCAR-3
[56] = tested on: M14
[57] = tested on: HCT-116
[58] = tested on: KM-20L2
[59] = tested on: HCT-15

## Cn1c(=O)c2nc3sc4ccccc4c(=N)n3c2n(C)c1=O
[1]
  GI50: > 100 µM (inactive)
[2]
  GI50: > 100 µM (inactive)
[3]
  GI50: > 100 µM (inactive)
[4]
  GI50: > 100 µM (inactive)
[5]
  GI50: > 100 µM (inactive)
[6]
  GI50: > 100 µM (inactive)
[7]
  GI50: > 100 µM (inactive)
[8]
  GI50: > 100 µM (inactive)
[9]
  GI50: > 100 µM (inactive)
[10]
  GI50: > 100 µM (inactive)
[11]
  GI50: > 100 µM (inactive)
[12]
  GI50: > 100 µM (inactive)
[13]
  GI50: > 100 µM (inactive)
[14]
  GI50: > 100 µM (inactive)
[15]
  GI50: > 100 µM (inactive)
[16]
  GI50: > 100 µM (inactive)
[17]
  GI50: > 100 µM (inactive)
[18]
  GI50: > 100 µM (inactive)
[19]
  GI50: > 100 µM (inactive)
[20]
  GI50: > 100 µM (inactive)
[21]
  GI50: > 100 µM (inactive)
[22]
  GI50: > 100 µM (inactive)
[23]
  GI50: 25.1 µM (inactive)
[24]
  GI50: > 100 µM (inactive)
[25]
  GI50: > 100 µM (inactive)
[26]
  GI50: > 100 µM (inactive)
[27]
  GI50: > 100 µM (inactive)
[28]
  GI50: > 100 µM (inactive)
[29]
  GI50: > 100 µM (inactive)
[30]
  GI50: > 100 µM (inactive)
[31]
  GI50: > 100 µM (inactive)
[32]
  GI50: > 100 µM (inactive)
[33]
  GI50: > 100 µM (inactive)
[34]
  GI50: > 100 µM (inactive)
[35]
  GI50: > 100 µM (inactive)
[36]
  GI50: > 100 µM (inactive)
[37]
  GI50: > 100 µM (inactive)
[38]
  GI50: > 100 µM (inactive)
[39]
  GI50: > 100 µM (inactive)
[40]
  GI50: > 100 µM (inactive)
[41]
  GI50: > 100 µM (inactive)
[42]
  GI50: > 100 µM (inactive)
[43]
  GI50: > 100 µM (inactive)
[44]
  GI50: > 100 µM (inactive)
[45]
  GI50: > 100 µM (inactive)
[46]
  GI50: > 100 µM (inactive)
[47]
  GI50: > 100 µM (inactive)
[48]
  GI50: > 100 µM (inactive)
[49]
  GI50: > 100 µM (inactive)
[50]
  GI50: > 10 µM (inactive)
[51]
  GI50: > 100 µM (inactive)
[52]
  GI50: > 100 µM (inactive)

## O=C(c1ccccc1)[C@H]1Nc2cnccc2C2c3ccccc3CC21 (stereo partly specified)
[1]
  GI50: 12.8 µM (inactive)
[2]
  GI50: 4.38 µM (inactive)
[3]
  GI50: 15.7 µM (inactive)
[4]
  GI50: 2.78 µM (inactive)
[5]
  GI50: 25 µM (inactive)
[6]
  GI50: 35.1 µM (inactive)
[7]
  GI50: 13.8 µM (inactive)
[8]
  GI50: 2.99 µM (inactive)
[9]
  GI50: 26.6 µM (inactive)
[10]
  GI50: 3.14 µM (inactive)
[11]
  GI50: 15.5 µM (inactive)
[12]
  GI50: 12.9 µM (inactive)
[13]
  GI50: 19.4 µM (inactive)
[14]
  GI50: 20.2 µM (inactive)
[15]
  GI50: 8.24 µM (inactive)
[16]
  GI50: 5.6 µM (inactive)
[17]
  GI50: 1.57 µM (inactive)
[18]
  GI50: 11.1 µM (inactive)
[53]
  GI50: 7 µM (inactive)
[19]
  GI50: 24 µM (inactive)
[20]
  GI50: 17.9 µM (inactive)
[21]
  GI50: 8.51 µM (inactive)
[22]
  GI50: 7.21 µM (inactive)
[54]
  GI50: 16.2 µM (inactive)
[23]
  GI50: 4.26 µM (inactive)
[55]
  GI50: 7.69 µM (inactive)
[24]
  GI50: 10 µM (inactive)
[25]
  GI50: 7.01 µM (inactive)
[26]
  GI50: 28.4 µM (inactive)
[56]
  GI50: 6.82 µM (inactive)
[27]
  GI50: 42.1 µM (inactive)
[28]
  GI50: 26.7 µM (inactive)
[29]
  GI50: 13.1 µM (inactive)
[30]
  GI50: 8.59 µM (inactive)
[31]
  GI50: 24.9 µM (inactive)
[32]
  GI50: 4.63 µM (inactive)
[33]
  GI50: 0.564 µM (active)
[34]
  GI50: 23.7 µM (inactive)
[57]
  GI50: 3.81 µM (inactive)
[35]
  GI50: 25.9 µM (inactive)
[36]
  GI50: 39.4 µM (inactive)
[37]
  GI50: 14.8 µM (inactive)
[38]
  GI50: 16.9 µM (inactive)
[39]
  GI50: 13.2 µM (inactive)
[40]
  GI50: 21.9 µM (inactive)
[41]
  GI50: 19.9 µM (inactive)
[42]
  GI50: 18.2 µM (inactive)
[43]
  GI50: 8.3 µM (inactive)
[44]
  GI50: 7.43 µM (inactive)
[45]
  GI50: 7.35 µM (inactive)
[46]
  GI50: 3.31 µM (inactive)
[58]
  GI50: 21.2 µM (inactive)
[47]
  GI50: 15.1 µM (inactive)
[59]
  GI50: 8.95 µM
[48]
  GI50: 3.27 µM (inactive)
[49]
  GI50: 19.8 µM (inactive)
[50]
  GI50: 11.3 µM (inactive)
[51]
  GI50: 14.1 µM (inactive)
[52]
  GI50: 19.9 µM (inactive)

## CCOC(=O)[C@H]1Nc2ccc(Cl)cc2[C@H]2OCC[C@@H]12
[1]
  GI50: > 100 µM (inactive)
[2]
  GI50: > 100 µM (inactive)
[3]
  GI50: > 100 µM (inactive)
[4]
  GI50: > 100 µM (inactive)
[5]
  GI50: > 100 µM (inactive)
[6]
  GI50: > 100 µM (inactive)
[7]
  GI50: > 100 µM (inactive)
[8]
  GI50: > 100 µM (inactive)
[9]
  GI50: > 100 µM (inactive)
[10]
  GI50: > 100 µM (inactive)
[11]
  GI50: > 100 µM (inactive)
[12]
  GI50: > 100 µM (inactive)
[13]
  GI50: > 100 µM (inactive)
[14]
  GI50: > 100 µM (inactive)
[15]
  GI50: > 100 µM (inactive)
[16]
  GI50: > 100 µM (inactive)
[17]
  GI50: > 100 µM (inactive)
[18]
  GI50: 75 µM (inactive)
[19]
  GI50: > 100 µM (inactive)
[20]
  GI50: > 100 µM (inactive)
[21]
  GI50: > 100 µM (inactive)
[54]
  GI50: > 100 µM (inactive)
[23]
  GI50: > 100 µM (inactive)
[55]
  GI50: > 100 µM (inactive)
[24]
  GI50: > 100 µM (inactive)
[25]
  GI50: > 100 µM (inactive)
[26]
  GI50: > 100 µM (inactive)
[56]
  GI50: > 100 µM (inactive)
[27]
  GI50: > 100 µM (inactive)
[28]
  GI50: > 100 µM (inactive)
[30]
  GI50: > 100 µM (inactive)
[31]
  GI50: > 100 µM (inactive)
[32]
  GI50: > 100 µM (inactive)
[33]
  GI50: > 100 µM (inactive)
[34]
  GI50: > 100 µM (inactive)
[57]
  GI50: > 100 µM (inactive)
[35]
  GI50: > 100 µM (inactive)
[36]
  GI50: > 100 µM (inactive)
[37]
  GI50: > 100 µM (inactive)
[38]
  GI50: > 100 µM (inactive)
[39]
  GI50: > 100 µM (inactive)
[40]
  GI50: > 100 µM (inactive)
[41]
  GI50: > 100 µM (inactive)
[42]
  GI50: > 100 µM (inactive)
[43]
  GI50: > 100 µM (inactive)
[45]
  GI50: > 100 µM (inactive)
[46]
  GI50: > 100 µM (inactive)
[58]
  GI50: > 100 µM (inactive)
[47]
  GI50: > 100 µM (inactive)
[59]
  GI50: > 100 µM
[48]
  GI50: > 100 µM (inactive)
[49]
  GI50: > 100 µM (inactive)
[50]
  GI50: > 100 µM (inactive)
[51]
  GI50: > 100 µM (inactive)
[52]
  GI50: > 100 µM (inactive)
